Data reported in patent publication US8575201B2 (Boehringer Ingelheim International GmbH, priority 2010, dated 2013).

How the values were obtained:
[1] = molecular target: recombinant human FLAP protein (Homo sapiens (Human), UniProt P20292); assay: FLAP binding assay (Scintillation Proximity Assay, displacement of [125I]L-691,831); conditions: read-out: FLAP SPA IC50
Experimental: Assessment of Biological Properties 1. Binding Assay: Compounds are assessed for the ability to bind to FLAP in a binding assay that measures compound-specific displacement of an iodinated (^125I) FLAP inhibitor via a Scintillation Proximity Assay format (adapted from S. Charleson et al., Mol. Pharmacol., 1992, 41, 873-879). […] The cells are lysed with a Dounce homogenizer and the material is centrifuged at 10,000×g for 10 minutes. The supernatant is then collected and centrifuged at 100,000×g for 60 minutes. To prepare membrane protein for an assay, an aliquot of the 100,000×g pellet is resuspended in 1 ml of buffer A, Dounce homogenized, and finally subjected to polytron mixing (30 seconds). […] Mol. Pharmacol., 41, 873-879, 1992) and finally 50 μl of the bead/protein mixture. (final concentrations: beads, 200 μg/well; protein, 5 μg/well; […] The plates are shaken for 2 h before reading on a Microbeta plate reader.

[2] = tested on: synthesis of LTB4 in human whole blood; assay: Human whole blood LTB4 production inhibition assay; type: cell-based; conditions: calcimycin stimulated, read-out: hWB LTB4 IC50
Experimental: Compounds are additionally tested in a human whole blood assay to determine their ability to inhibit the synthesis of LTB4 in a cellular system. Compounds are combined with heparinized human whole blood and incubated for 15 minutes at 37° C. Calcimycin (20 μM final, prepared in phosphate-buffered saline, pH 7.4) is then added and the mixture is incubated for another 30 minutes at 37° C. The samples are centrifuged for 5 min at low speed (1500×g) and the plasma layer is removed. Plasma LTB4 concentrations are then measured using an antibody-based homogenous time-resolved fluorescence method (CisBio, Bedford, Mass.).

recombinant human FLAP protein, sequence (P20292 whole entry): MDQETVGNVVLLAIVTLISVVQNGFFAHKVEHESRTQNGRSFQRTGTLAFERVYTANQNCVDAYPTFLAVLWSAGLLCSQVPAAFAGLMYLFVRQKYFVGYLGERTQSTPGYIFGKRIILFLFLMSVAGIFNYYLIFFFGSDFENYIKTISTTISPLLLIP

| IC50 [1] [nM] | IC50 [2] [nM] | SMILES |
| --- | --- | --- |
| 170 | 590 | Nc1ncc(-c2ccc(C3(c4noc(N5CCC(O)CC5)n4)CCC3)cn2)cn1 [Example 154, 1-(3-{1-[6-(2-Amino-pyrimidin-5-yl)-pyridin-3-yl]-cyclobutyl}-[1,2,4]oxadiazol-5-yl)-piperidin-4-ol] |
| 32 | 160 | CNc1cnc(-c2ccc(C3(c4noc(-c5cnn(CC(C)(C)O)c5)n4)CCC3)cn2)cn1 [Example 177, 2-Methyl-1-[4-(3-{1-[6-(5-methylamino-pyrazin-2-yl)-pyridin-3-yl]-cyclobutyl}-[1,2,4]oxadiazol-5-yl)-pyrazol-1-yl]-propan-2-ol] |
| 830 | 620 | Cc1nc(N)ncc1-c1ccc(C2(c3noc(-c4cnn(CC(C)(C)O)c4)n3)CCC2)cn1 [Example 175, 1-[4-(3-{1-[6-(2-Amino-4-methyl-pyrimidin-5-yl)-pyridin-3-yl]-cyclobutyl}-[1,2,4]oxadiazol-5-yl)-pyrazol-1-yl]-2-methyl-propan-2-ol] |
| 50 | 76 | COCCn1cc(-c2nc(C3(c4ccc(-c5cnc(N)cn5)nc4)CCC3)no2)cn1 [Example 171, 5-[5-(1-{5-[1-(2-Methoxy-ethyl)-1H-pyrazol-4-yl]-[1,2,4]oxadiazol-3-yl}-cyclobutyl)-pyridin-2-yl]-pyrazin-2-ylamine] |
| 97 | 620 | Nc1ncc(-c2ccc(C3(c4noc(-c5cnn(CC(=O)NCC6CCCO6)c5)n4)CCC3)cn2)cn1 (centres unmarked) [Example 156, 2-[4-(3-{1-[6-(2-amino-pyrimidin-5-yl)-pyridin-3-yl]-cyclobutyl}-[1,2,4]oxadiazol-5-yl)-pyrazol-1-yl]-N-(tetrahydro-furan-2-ylmethyl)-acetamide] |
| 43 | 170 | CN(C)C(=O)Cn1cc(-c2nc(C3(c4ccc(-c5cnc(N)cn5)nc4)CCC3)no2)cn1 [Example 164, 2-[4-(3-{1-[6-(5-amino-pyrazin-2-yl)-pyridin-3-yl]-cyclobutyl}-[1,2,4]oxadiazol-5-yl)-pyrazol-1-yl]-N,N-dimethyl-acetamide] |
| 14 | 260 | CN(C(=O)Cn1cc(-c2nc(C3(c4ccc(-c5cnc(N)nc5)nc4)CCC3)no2)cn1)C(C)(C)C [Example 143, 2-[4-(3-{1-[6-(2-aminopyrimidin-5-yl)pyridin-3-yl]cyclobutyl}-1,2,4-oxadiazol-5-yl)-1H-pyrazol-1-yl]-N-tert-butyl-N-methylacetamide] |
| 79 | 560 | CC(C)NC(=O)Cn1cc(-c2nc(C3(c4ccc(-c5cnc(N)nc5)nc4)CCC3)no2)cn1 [Example 157, 2-[4-(3-{1-[6-(2-amino-pyrimidin-5-yl)-pyridin-3-yl]-cyclobutyl}-[1,2,4]oxadiazol-5-yl)-pyrazol-1-yl]-N-isopropyl-acetamide] |

The remaining lines, values behind:

| SMILES | IC50 [1] [nM] | IC50 [2] [nM] |
| --- | --- | --- |
| Nc1ncc(-c2ccc(C3(c4noc(-c5ccc(NCCO)nc5)n4)CCC3)cn2)cn1 [Example 115, 2-{[5-(3-{1-[6-(2-aminopyrimidin-5-yl)pyridin-3-yl]cyclobutyl}-1,2,4-oxadiazol-5-yl)pyridin-2-yl]amino}ethanol] | 1.9 | 49 |
| CC(C)n1cc(-c2nc(C3(c4ccc(-c5cnc(N)nc5)nc4)CCC3)no2)cn1 [Example 64, 5-[5-(1-{5-[1-(propan-2-yl)-1H-pyrazol-4-yl]-1,2,4-oxadiazol-3-yl}cyclobutyl)pyridin-2-yl]pyrimidin-2-amine] | 7.2 | 170 |
| CN(C)C(=O)[C@@H]1CCCN1c1ccc(-c2nc(C3(c4ccc(-c5cnc(N)nc5)nc4)CCC3)no2)cn1 [Example 34, 1-[5-(3-{1-[6-(2-aminopyrimidin-5-yl)pyridin-3-yl]cyclobutyl}-1,2,4-oxadiazol-5-yl)pyridin-2-yl]-N,N-dimethyl-L-prolinamide] | 40 | 1800 |
| Nc1ncc(-c2ccc(C3(c4noc(-c5c[nH]nn5)n4)CCC3)cn2)cn1 [Example 14, 5-(5-{1-[5-(1H-1,2,3-triazol-4-yl)-1,2,4-oxadiazol-3-yl]cyclobutyl}pyridin-2-yl)pyrimidin-2-amine] | 140 | > 5000 |
| Nc1ncc(-c2ccc(C3(c4noc(-c5cnccn5)n4)CCC3)cn2)cn1 [Example 129, 5-(5-{1-[5-(pyrazin-2-yl)-1,2,4-oxadiazol-3-yl]cyclobutyl}pyridin-2-yl)pyrimidin-2-amine] | 47 | 630 |
| Nc1ncc(-c2ccc(C3(c4noc(-c5ccc(N6CCN[C@H](C(=O)O)C6)nc5)n4)CCC3)cn2)cn1 [Example 41, (2S)-4-[5-(3-{1-[6-(2-aminopyrimidin-5-yl)pyridin-3-yl]cyclobutyl}-1,2,4-oxadiazol-5-yl)pyridin-2-yl]piperazine-2-carboxylic acid] | 7.7 | > 5000 |
| Nc1ncc(-c2ccc(C3(c4noc(-c5ccnnc5)n4)CCC3)cn2)cn1 [Example 104, 5-(5-{1-[5-(pyridazin-4-yl)-1,2,4-oxadiazol-3-yl]cyclobutyl}pyridin-2-yl)pyrimidin-2-amine] | 110 | 2100 |
| Nc1ncc(-c2ccc(C3(c4noc(-c5cc[nH]n5)n4)CCC3)cn2)cn1 [Example 4, 5-(5-{1-[5-(1H-pyrazol-3-yl)-1,2,4-oxadiazol-3-yl]cyclobutyl}pyridin-2-yl)pyrimidin-2-amine] | 17 | 430 |
| NC(=O)CNc1ccc(-c2nc(C3(c4ccc(-c5cnc(N)nc5)nc4)CCC3)no2)cn1 [Example 2, N-2-[5-(3-{1-[6-(2-aminopyrimidin-5-yl)pyridin-3-yl]cyclobutyl}-1,2,4-oxadiazol-5-yl)pyridin-2-yl]glycinamide] | 5 | 740 |
| Nc1ncc(-c2ccc(C3(c4noc(-c5cccnc5N5CCOCC5)n4)CCC3)cn2)cn1 [Example 128, 5-[5-(1-{5-[2-(morpholin-4-yl)pyridin-3-yl]-1,2,4-oxadiazol-3-yl}cyclobutyl)pyridin-2-yl]pyrimidin-2-amine] | 66 | 2700 |
| CC(C)(C)OC(=O)N1CCN(c2ccc(-c3nc(C4(c5ccc(-c6cnc(N)nc6)nc5)CCC4)no3)cn2)CC1 [Example 1, tert-butyl 4-[5-(3-{1-[6-(2-aminopyrimidin-5-yl)pyridin-3-yl]cyclobutyl}-1,2,4-oxadiazol-5-yl)pyridin-2-yl]piperazine-1-carboxylate] | 3.8 | 280 |
| CS(=O)(=O)c1ccc(-c2nc(C3(c4ccc(-c5cnc(N)nc5)nc4)CCC3)no2)cc1 [Example 7, 5-[5-(1-{5-[4-(methylsulfonyl)phenyl]-1,2,4-oxadiazol-3-yl}cyclobutyl)pyridin-2-yl]pyrimidin-2-amine] | 11 | 690 |
| Cc1ncccc1-c1nc(C2(c3ccc(-c4cnc(N)nc4)nc3)CCC2)no1 [Example 85, 5-(5-{1-[5-(2-methylpyridin-3-yl)-1,2,4-oxadiazol-3-yl]cyclobutyl}pyridin-2-yl)pyrimidin-2-amine] | 21 | 1000 |
| Cn1nccc1-c1nc(C2(c3ccc(-c4cnc(N)nc4)nc3)CCC2)no1 [Example 124, 5-(5-{1-[5-(1-methyl-1H-pyrazol-5-yl)-1,2,4-oxadiazol-3-yl]cyclobutyl}pyridin-2-yl)pyrimidin-2-amine] | 11 | 210 |
| Nc1ncc(-c2ccc(C3(c4noc(-c5cnn(C6COC6)c5)n4)CCC3)cn2)cn1 [Example 55, 5-[5-(1-{5-[1-(oxetan-3-yl)-1H-pyrazol-4-yl]-1,2,4-oxadiazol-3-yl}-cyclobutyl)pyridin-2-yl]pyrimidin-2-amine] | 13 | 52 |
| Nc1ncc(-c2ccc(C3(c4noc(-c5cnco5)n4)CCC3)cn2)cn1 [Example 98, 5-(5-{1-[5-(1,3-oxazol-5-yl)-1,2,4-oxadiazol-3-yl]cyclobutyl}pyridin-2-yl)pyrimidin-2-amine] | 110 | > 5000 |
| C[C@H](O)CNc1ccc(-c2nc(C3(c4ccc(-c5cnc(N)nc5)nc4)CCC3)no2)cn1 [Example 46, (2S)-1-{[5-(3-{1-[6-(2-aminopyrimidin-5-yl)pyridin-3-yl]cyclobutyl}-1,2,4-oxadiazol-5-yl)pyridin-2-yl]amino}propan-2-ol] | 2.4 | 110 |
| Nc1ncc(-c2ccc(C3(c4noc(-c5ccc(NCC(=O)O)nc5)n4)CCC3)cn2)cn1 [Example 16, N-[5-(3-{1-[6-(2-aminopyrimidin-5-yl)pyridin-3-yl]cyclobutyl}-1,2,4-oxadiazol-5-yl)pyridin-2-yl]glycine] | 11 | 2200 |
| Nc1ncc(-c2ccc(C3(c4noc(-c5cnn(CCF)c5)n4)CCC3)cn2)cn1 [Example 67, 5-[5-(1-{5-[1-(2-fluoroethyl)-1H-pyrazol-4-yl]-1,2,4-oxadiazol-3-yl}cyclobutyl)pyridin-2-yl]pyrimidin-2-amine] | 9.5 | 69 |
| Nc1ncc(-c2ccc(C3(c4noc(-c5cnn(CC(F)F)c5)n4)CCC3)cn2)cn1 [Example 68, 5-[5-(1-{5-[1-(2,2-difluoroethyl)-1H-pyrazol-4-yl]-1,2,4-oxadiazol-3-yl}cyclobutyl)pyridin-2-yl]pyrimidin-2-amine] | 6.1 | 160 |
